# Activity calls are given as the source filed them. The calls are words filed in the database; no cut-off is given here.
# Experiments:
# U87 [1] = test: Inhibition of ID2/KDR signalling in human U87 cells assessed as decrease in ID2 protein level measured after 24 hrs by western blot analysis; assay type: cell-based; details: filed as antagonist
# GL261 [2] = test: Induction of apoptosis in mouse GL261 cells assessed as early apoptotic cells at 25 uM measured after 24 hrs by annexin V-FITC/propidium iodide staining based flow cytometry analysis (reference value: 1.67%); assay type: functional
# U-87 MG [3] = test: Antiinvasive activity against human U87 cells assessed as inhibition of cell invasion measured after 24 hrs by crystal violet staining based inverted microscopic analysis; assay type: functional; details: U-87MG ATCC
# U-87 MG [4] = test: Induction of apoptosis in human U87 cells assessed as dead cells at 25 uM measured after 24 hrs by annexin V-FITC/propidium iodide staining based flow cytometry analysis (Rvb =3.52 %); assay type: functional, U-87MG ATCC
# U-87 MG [5] = test: Induction of apoptosis in human U87 cells assessed as early apoptotic cells at 50 uM measured after 24 hrs by annexin V-FITC/propidium iodide staining based flow cytometry analysis (reference value: 4.35%); assay type: functional, U-87MG ATCC
# [6] = Aqueous solubility of compound at up to 80 uM measured after 10 mins by optical microscopic analysis; assay type: physicochemical; details: buffer
# U-87 MG [7] = test: Induction of apoptosis in human U87 cells assessed as viable cells at 25 uM measured after 24 hrs by annexin V-FITC/propidium iodide staining based flow cytometry analysis (reference value: 89.6%); assay type: functional, U-87MG ATCC; details: read-out: Activity
# [8] = Binding affinity to CM5 sensor chip immobilized human ID2 assessed as dissociation constant by SPR analysis
# U-87 MG [9] = test: Induction of apoptosis in human U87 cells assessed as viable cells at 50 uM measured after 24 hrs by annexin V-FITC/propidium iodide staining based flow cytometry analysis (reference value: 89.6%); assay type: functional, U-87MG ATCC; details: read-out: Activity
# GL261 [10] = test: Induction of apoptosis in mouse GL261 cells assessed as late apoptotic cells at 50 uM measured after 24 hrs by annexin V-FITC/propidium iodide staining based flow cytometry analysis (reference value: 1.01%); assay type: functional
# GL261 [11] = test: Antimigratory activity against mouse GL261 cells assessed as inhibition of cell migration measured after 24 hrs by crystal violet staining based inverted microscopic analysis; assay type: functional
# U-87 MG [12] = test: Induction of apoptosis in human U87 cells assessed as late apoptotic cells at 25 uM measured after 24 hrs by annexin V-FITC/propidium iodide staining based flow cytometry analysis (reference value: 2.56%); assay type: functional, U-87MG ATCC
# GL261 [13] = test: Induction of apoptosis in mouse GL261 cells assessed as viable cells at 25 uM measured after 24 hrs by annexin V-FITC/propidium iodide staining based flow cytometry analysis (reference value: 96.1%); assay type: functional; details: read-out: Activity
# U87 [14] = test: Inhibition of ID2/KDR signalling in human U87 cells assessed as reduction in MMP9 expression at 12.5 to 50 uM measured after 24 hrs by western blot analysis; assay type: cell-based; details: filed as antagonist, dose 12.5-50 µM
# U87 [15] = test: Inhibition of ID2/KDR signalling in human U87 cells assessed as reduction in KDR mRNA expression at 12.5 to 50 uM measured after 24 hrs by qRT-PCR analysis; assay type: cell-based; details: filed as antagonist, dose 12.5-50 µM
# GL261 [16] = test: Induction of apoptosis in mouse GL261 cells assessed as dead cells at 50 uM measured after 24 hrs by annexin V-FITC/propidium iodide staining based flow cytometry analysis (reference value: 1.22%); assay type: functional
# GL261 [17] = test: Induction of apoptosis in mouse GL261 cells assessed as viable cells at 50 uM measured after 24 hrs by annexin V-FITC/propidium iodide staining based flow cytometry analysis (reference value: 96.1%); assay type: functional; details: read-out: Activity
# U-87MG ATCC [18] = test: Antitumor activity against human U87 cells xenografted in NCG mouse assessed as reduction in CD31 marker expression in tumor at 2.5 mg/kg, ip administered every other day for 5 days and measured after 7 days post first dose by immunohistochemical analysis; assay type: functional, organism-based; details: time 7.0 day
# [19] = Toxicity in NCG mouse xenografted with human U87 cells assessed as reduction in body weight at 2.5 mg/kg, ip administered every other day for 5 days and measured after 12 days; assay type: organism-based; details: in vivo, 288 h, time 12 day
# U87 [20] = test: Inhibition of ID2/KDR signalling in human U87 cells assessed as decrease in KDR protein level measured after 24 hrs by western blot analysis; assay type: cell-based; details: filed as antagonist
# NIH3T3 = test: Cytotoxicity against mouse 3T3 cells assessed as reduction in cell viability at up to 100 nM incubated for 24 hrs by CCK8 assay; assay type: cell-based; details: nih3t3, 24 h
# [21] = Antitumor activity against human U87 cells xenografted in NCG mouse assessed as tumor growth inhibition at 2.5 mg/kg, ip administered every other day for 5 days relative to control; assay type: functional, U-87MG ATCC; parameters: scale not given: the % may be the effect or the level left; details: time 5 day
# L02 = test: Cytotoxicity against human L02 cells assessed as reduction in cell viability at up to 100 nM incubated for 24 hrs by CCK8 assay; assay type: cell-based; details: l02, 24 h
# U87 [22] = test: Inhibition of ID2/KDR signalling in human U87 cells assessed as increase in PTEN expression at 12.5 to 50 uM measured after 24 hrs by western blot analysis; assay type: cell-based; details: filed as antagonist, dose 12.5-50 µM
# U87 [23] = test: Inhibition of ID2/KDR signalling in human U87 cells assessed as decrease in VEGFA protein level measured after 24 hrs by western blot analysis; assay type: cell-based; details: filed as antagonist
# U-87 MG [24] = test: Induction of apoptosis in human U87 cells assessed as late apoptotic cells at 50 uM measured after 24 hrs by annexin V-FITC/propidium iodide staining based flow cytometry analysis (reference value: 2.56%); assay type: functional, U-87MG ATCC
# U-87 MG [25] = test: Induction of apoptosis in human U87 cells assessed as dead cells at 50 uM measured after 24 hrs by annexin V-FITC/propidium iodide staining based flow cytometry analysis (Rvb =3.52 %); assay type: functional, U-87MG ATCC
# U-87 MG [26] = test: Cytotoxicity against human U87 cells assessed as reduction in cell viability incubated for 24 hrs by CCK8 assay; assay type: functional, cell-based, U-87MG ATCC
# Homo sapiens = species on record: Homo sapiens; test: Binding affinity to CM5 sensor chip immobilized human ID2 assessed as maximum response by SPR analysis; details: filed as antagonist
# GL261 [27] = test: Antiinvasive activity against mouse GL261 cells assessed as inhibition of cell invasion measured after 24 hrs by crystal violet staining based inverted microscopic analysis; assay type: functional
# U-87 MG [28] = test: Induction of apoptosis in human U87 cells assessed as early apoptotic cells at 25 uM measured after 24 hrs by annexin V-FITC/propidium iodide staining based flow cytometry analysis (reference value: 4.35%); assay type: functional, U-87MG ATCC
# U-87MG ATCC [29] = test: Antitumor activity against human U87 cells xenografted in NCG mouse assessed as reduction in Ki67 expression in tumor at 2.5 mg/kg, ip administered every other day for 5 days and measured after 7 days post first dose by immunohistochemical analysis; assay type: functional, organism-based; details: time 7.0 day
# U-87 MG [30] = test: Antimigratory activity against human U87 cells assessed as reduction in wound closure at 12.5 uM measured up to 24 hrs by scratch wound healing assay (Rvb =61.5+/-10.21%); assay type: functional, U-87MG ATCC; parameters: scale not given: the % may be the effect or the level left; details: time hrs <=24
# U87 [31] = test: Inhibition of ID2/KDR signalling in human U87 cells assessed as reduction in MMP2 expression at 12.5 to 50 uM measured after 24 hrs by western blot analysis; assay type: cell-based; details: filed as antagonist, dose 12.5-50 µM
# [32] = Antitumor activity against human U87 cells xenografted in NCG mouse assessed as reduction in tumor weight at 2.5 mg/kg, ip administered every other day for 5 days and measured after 12 days relative to control; assay type: functional, U-87MG ATCC; parameters: scale not given: the % may be the effect or the level left; details: time 12 day
# Hs 683 = test: Cytotoxicity against human Hs 683 cells assessed as reduction in cell viability incubated for 24 hrs by CCK8 assay; assay type: functional, cell-based; details: Hs 683, 24 h
smiles,measurement,setting,value
O=C(C[C@@]1(O)C(=O)N(Cc2cccc(Cl)c2)c2ccccc21)c1ccccn1,inhibition,U87 [1],Dose-Dependent Effect
same,Activity,GL261 [2],8.24%
same,Activity,U-87 MG [3],Dose-Dependent Effect
same,Activity,U-87 MG [4],2.72%
same,Activity,U-87 MG [5],27.3%
same,solubility,[6],Soluble
same,viability at 25 µM,U-87 MG [7],8.04%
same,Kd,[8],0.129 µM
same,viability at 50 µM,U-87 MG [9],2.61%
same,Activity,GL261 [10],69.3%
same,Activity,GL261 [11],Dose-Dependent Effect
same,Activity,U-87 MG [12],43.9%
same,viability at 25 µM,GL261 [13],70.2%
same,inhibition,U87 [14],Active
same,inhibition,U87 [15],Active
same,Activity,GL261 [16],11%
same,viability at 50 µM,GL261 [17],6.58%
same,Activity,U-87MG ATCC [18],Active
same,Activity,[19],Non-Toxic
same,inhibition,U87 [20],Dose-Dependent Effect
same,Activity,NIH3T3,Non-Toxic
same,Activity,[21],49.7%
same,Activity,L02,Non-Toxic
same,inhibition,U87 [22],Active
same,inhibition,U87 [23],Dose-Dependent Effect
same,Activity,U-87 MG [24],68.8%
same,Activity,U-87 MG [25],1.29%
same,IC50,U-87 MG [26],27.3 µM
same,Rmax,Homo sapiens,83.6 RU
same,Activity,GL261 [27],Dose-Dependent Effect
same,Activity,U-87 MG [28],45.4%
same,Activity,U-87MG ATCC [29],Active
same,Activity,U-87 MG [30],5.59%
same,inhibition,U87 [31],Active
same,Activity,[32],57.8%
same,IC50,Hs 683,34.2 µM

# Source: ChEMBL document CHEMBL5029168, “Discovery of novel ID2 antagonists from pharmacophore-based virtual screening as potential therapeutics for glioma” (Bioorg Med Chem, 2021)
